# Source: the supplement of paper PMC10331698
# ± gives the standard deviation of the averaged measurements.
# Tests used:
# Experiment in all cases: level (log10 ratio to DMSO vehicle control); higher = higher biomarker level / cell amount than vehicle control
# [1] = compound: C=C(C)C(=O)OCC(F)(F)C(F)(F)C(F)(F)F [2,2,3,3,4,4,4-Heptafluorobutyl methacrylate]; details: in DMSO
# Procedure: (§1)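 BioMAP Diversity Plus panel of 12 human primary cell co-culture systems (3C, 4H, LPS, SAg, BT, BF4T, BE3C, CASM3C, HDF3CGF, KF3CT, MyoF, Mphg). Compounds were added 1 h before stimulation and left for 24 h (MyoF 48 h; BT 72 h for soluble read-outs or 6 d for IgG). Biomarkers were read by ELISA, cytotoxicity by SRB, PBMC viability and proliferation by Alamar Blue. Each well value was divided by the mean of 8 DMSO control wells on the same plate and log10 transformed; duplicate blinded samples were tested at 4 concentrations.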
# [2] = compound: C=CC(=O)OCC(F)(F)C(F)(F)C(F)(F)C(F)(F)C(F)(F)C(F)(F)C(F)(F)C(F)F [1H,1H,9H-Perfluorononyl acrylate]; details: in DMSO
# Procedure: as §1
# [3] = compound: C=CC(=O)OCC(F)(F)C(F)(F)C(F)(F)C(F)(F)COC(=O)C=C [1H,1H,6H,6H-Perfluorohexane-1,6-diol diacrylate]; details: 6700 nM; in DMSO
# Procedure: as §1
# [4] = compound: Cc1ccc(S(=O)(=O)OCC(F)(F)C(F)(F)C(F)(F)C(F)(F)C(F)(F)C(F)F)cc1 [1H,1H,7H-Perfluoroheptyl 4-methylbenzenesulfonate]; details: in DMSO
# Procedure: as §1
# [5] = compound: FC(F)(F)C(F)(F)C(F)(F)C(F)(F)CCI [1H,1H,2H,2H-Perfluorohexyl iodide]; details: in DMSO
# Procedure: as §1
# [6] = compound: FC(F)(F)COC(OCC(F)(F)F)OCC(F)(F)F [tris(Trifluoroethoxy)methane]; details: in DMSO
# Procedure: as §1
# [7] = compound: O=C(O)C(F)(F)C(F)(F)C(F)(F)C(F)(F)C(F)(F)C(F)(F)C(F)(F)F [Perfluorooctanoic acid]; details: in DMSO
# Procedure: as §1
# [8] = compound: OCCC(F)(F)C(F)(F)C(F)(F)C(F)(F)C(F)(F)C(F)(F)C(F)(F)C(F)(F)F [8:2 Fluorotelomer alcohol]; details: 6700 nM; in DMSO
# Procedure: as §1
Test System,level (log10) ([1]; 6700 nM),level (log10) ([1]; 20000 nM),level (log10) ([1]; 60000 nM),level (log10) ([2]; 6700 nM),level (log10) ([2]; 20000 nM),level (log10) ([2]; 60000 nM),level (log10) [3],level (log10) ([4]; 6700 nM),level (log10) ([4]; 20000 nM),level (log10) ([4]; 60000 nM),level (log10) ([5]; 6700 nM),level (log10) ([5]; 20000 nM),level (log10) ([5]; 60000 nM),level (log10) ([6]; 6700 nM),level (log10) ([6]; 20000 nM),level (log10) ([6]; 60000 nM),level (log10) ([7]; 6700 nM),level (log10) ([7]; 20000 nM),level (log10) ([7]; 60000 nM),level (log10) [8]
SAg:CD69,-0.016 ± 0.0099,-0.0215 ± 0.0021,-0.009 ± 0.0042,-0.0475 ± 0.028,-0.0395 ± 0.03,-0.099 ± 0.018,-0.0645 ± 0.029,-0.01 ± 0.0099,0.0205 ± 0.016,0.0105 ± 0.00071,0.0135 ± 0.015,-0.003 ± 0.0014,-0.0125 ± 0.005,0.022 ± 0.0042,0.0105 ± 0.011,0.0215 ± 0.0035,-0.0095 ± 0.0035,-0.0265 ± 0.011,-0.0355 ± 0.016,-0.018 ± 0.018
BF4T:CD106/VCAM-1,0.009 ± 0.013,-0.021 ± 0.011,-0.0245 ± 0.0035,-0.007 ± 0.0071,-0.0165 ± 0.04,0.0185 ± 0.066,-0.132 ± 0.016,0.009 ± 0.042,0.024 ± 0.0014,-0.0055 ± 0.04,-0.0245 ± 0.0021,-0.044 ± 0.025,-0.0065 ± 0.086,-0.014 ± 0.0042,-0.005 ± 0.023,0.003 ± 0.023,-0.037 ± 0.017,-0.0345 ± 0.032,0 ± 0.065,-0.0905 ± 0.023
LPS:CD141/Thrombomodulin,0.001 ± 0.05,-0.0015 ± 0.005,-0.0185 ± 0.019,-0.028 ± 0.0042,-0.0695 ± 0.035,-0.108 ± 0.021,-0.0375 ± 0.013,-0.0115 ± 0.016,-0.011 ± 0.0085,-0.007 ± 0.023,0.0185 ± 0.023,0.011 ± 0.038,-0.005 ± 0.027,-0.042 ± 0.042,-0.0385 ± 0.0078,-0.0505 ± 0.0035,0.068 ± 0.076,0.0185 ± 0.077,0 ± 0.03,-0.0605 ± 0.14
BF4T:CCL2/MCP-1,0.026 ± 0.0042,0.0355 ± 0.0021,0.0345 ± 0.022,-0.015 ± 0.047,-0.0035 ± 0.0035,0.0155 ± 0.026,-0.055 ± 0.02,-0.026 ± 0.018,-0.124 ± 0.0085,-0.0585 ± 0.022,0.013 ± 0.059,0.026 ± 0.065,0.0295 ± 0.13,0.0025 ± 0.023,-0.0115 ± 0.032,0.019 ± 0.061,0.0265 ± 0.018,0.015 ± 0.013,-0.0835 ± 0.039,-0.0135 ± 0.0035
SAg:CXCL9/MIG,-0.004 ± 0.03,0.002 ± 0.011,0.009 ± 0.013,-0.0135 ± 0.0021,0.003 ± 0.0099,-0.0155 ± 0.0078,-0.009 ± 0.018,0.001 ± 0.0042,-0.028,-0.0075 ± 0.0064,-0.0015 ± 0.005,-0.006 ± 0.0085,0.009 ± 0.0028,0.0015 ± 0.018,0.011 ± 0.0042,0.014 ± 0.0028,-0.0085 ± 0.0021,-0.008 ± 0.0028,0.004 ± 0.017,-0.006 ± 0.0014
BE3C:CXCL11/I-TAC,0.0215 ± 0.03,0.0225 ± 0.005,0.017 ± 0.0085,0.0045 ± 0.00071,0.0085 ± 0.013,-0.005 ± 0.0085,-0.0115 ± 0.0021,-0.0205 ± 0.0064,-0.0385 ± 0.00071,-0.0185 ± 0.019,-0.001 ± 0.0014,0.0005 ± 0.0035,0.005 ± 0.0099,0.0065 ± 0.012,-0.002 ± 0.0042,0.0015 ± 0.0021,-0.0225 ± 0.032,-0.0225 ± 0.029,-0.0095 ± 0.016,-0.012 ± 0.0014
SAg:CXCL8/IL-8,-0.003 ± 0.061,-0.002 ± 0.075,0.006 ± 0.02,-0.068 ± 0.0028,-0.0845 ± 0.026,-0.0975 ± 0.14,-0.102 ± 0.011,0.005 ± 0.0014,0.0025 ± 0.0064,0.0265 ± 0.033,0.012 ± 0.0042,-0.0035 ± 0.0092,-0.006 ± 0.058,0.002 ± 0.023,0.0085 ± 0.0021,0.0135 ± 0.00071,0.015 ± 0.016,0.0165 ± 0.028,0.0745 ± 0.029,-0.0115 ± 0.047
4H:CD62P/P-selectin,-0.002 ± 0.052,-0.008 ± 0.037,0.129 ± 0.021,-0.0135 ± 0.037,-0.045 ± 0.011,-0.109,-0.104 ± 0.026,0.052 ± 0.033,0.002 ± 0.035,0.149 ± 0.012,-0.001 ± 0.011,0.023 ± 0.011,0.0135 ± 0.012,-0.0215 ± 0.064,0.011 ± 0.088,-0.0135 ± 0.053,-0.005 ± 0.013,0.001 ± 0.0014,0.05 ± 0.02,-0.0615 ± 0.0064
BE3C:IL-1alpha,-0.003 ± 0.017,-0.019 ± 0.0057,-0.007 ± 0.011,-0.01 ± 0.0085,-0.021 ± 0.018,-0.03 ± 0.021,-0.0735 ± 0.03,0.01 ± 0.0085,-0.003 ± 0.018,0.071 ± 0.061,0.015 ± 0.017,0.024 ± 0.0042,0.045 ± 0.023,0.0075 ± 0.021,-0.006 ± 0.021,0.021 ± 0.0057,0.0075 ± 0.00071,-0.0035 ± 0.0035,0.0185 ± 0.016,-0.014 ± 0.0014
BE3C:CXCL9/MIG,0.003 ± 0.0085,0.0025 ± 0.0035,0.01 ± 0.0071,0.008 ± 0.0028,0.0055 ± 0.0078,0.0035 ± 0.0021,-0.0075 ± 0.011,0.005 ± 0.016,-0.001 ± 0.0028,0.0005 ± 0.021,0.006 ± 0.0085,0.002 ± 0.016,0.0165 ± 0.028,0.001 ± 0.0071,0.0025 ± 0.023,-0.0045 ± 0.018,-0.0025 ± 0.0035,-0.0045 ± 0.005,0.002 ± 0.018,-0.0095 ± 0.00071
3C:Proliferation,-0.0315 ± 0.044,-0.0325 ± 0.033,-0.049 ± 0.02,-0.092 ± 0.031,-0.186 ± 0.021,-0.415 ± 0.013,-0.307 ± 0.084,-0.02 ± 0.014,-0.033 ± 0.014,-0.12 ± 0.086,-0.0115 ± 0.0064,-0.051 ± 0.064,-0.047 ± 0.023,-0.013 ± 0.061,-0.001 ± 0.037,0.0035 ± 0.03,-0.0155 ± 0.015,-0.003 ± 0.0099,-0.08 ± 0.02,-0.0465 ± 0.005
BT:sIL-17A,-0.0665 ± 0.11,0.042 ± 0.065,0.0245 ± 0.086,-0.174 ± 0.019,-0.509 ± 0.17,-1.28 ± 0.4,-0.863 ± 0.015,0.093 ± 0.0099,0.037 ± 0.045,-0.117 ± 0.12,0.0075 ± 0.12,0.028 ± 0.011,-0.249 ± 0.1,-0.0445 ± 0.0078,-0.126 ± 0.15,0.079 ± 0.02,0.009 ± 0.048,-0.165 ± 0.11,-0.0845 ± 0.12,-0.034 ± 0.12
SAg:SRB,-0.0005 ± 0.0078,0.0035 ± 0.0035,0.002 ± 0.0099,-0.0035 ± 0.0035,-0.0055 ± 0.0021,-0.007 ± 0.021,-0.0115 ± 0.005,0.002 ± 0.0057,-0.017 ± 0.011,-0.109 ± 0.02,0.0005 ± 0.0064,-0.0005 ± 0.005,0.0035 ± 0.0078,-0.0155 ± 0.005,-0.0135 ± 0.0021,-0.013 ± 0.017,-0.018 ± 0.013,0.0045 ± 0.012,-0.053 ± 0.017,-0.0185 ± 0.00071
BT:B cell Proliferation,-0.0305 ± 0.076,-0.02 ± 0.086,-0.058 ± 0.011,-0.034 ± 0.0042,-0.0415 ± 0.0035,-0.253 ± 0.15,-0.188 ± 0.0057,-0.0165 ± 0.012,0.011 ± 0.0028,-0.034 ± 0.0057,-0.0105 ± 0.00071,-0.0085 ± 0.016,-0.0005 ± 0.032,-0.021 ± 0.021,-0.005 ± 0.018,-0.006 ± 0.073,0.0195 ± 0.018,0.027 ± 0.021,0.097 ± 0.0099,0.0245 ± 0.0064
